Test results reported in article PMC6710338, “Turning a Collagenesis-Inducing Peptide Into a Potent Antibacterial and Antibiofilm Agent Against Multidrug-Resistant Gram-Negative Bacteria” (Frontiers in Microbiology, 2019).
Peptide text beside a SMILES is read from it.

Tests used:
E. coli ATCC 25922 = test: MIC, broth microdilution (CLSI), ATCC reference strain; assay type: cell-based, Escherichia coli; conditions: E. coli ATCC 25922
Description: The minimum inhibitory concentration (MIC) of synthetic peptides was determined using the broth microdilution method in cation-adjusted Mueller-Hinton broth (MHB2 – Sigma-Aldrich, St. Louis, MO, United States), according to the recommendations of the Clinical and Laboratory Standards Institute ([CLSI, 2012]), against four reference strains, namely, P. aeruginosa ATCC 27853, E. coli ATCC 25922, S. aureus ATCC 25923 and Enterococcus faecalis ATCC 29212. MIC values of peptide 3.1-PP4 were also determined against MDR clinical isolates of P. aeruginosa (PA002, PA004, Pa3, Pa4), E. coli (Ec1, Ec2, EC001, EC002, EC003) and K. pneumoniae (KP004, KP007, KP010). The peptides were tested in the concentration range of 1–1024 μg/mL. The minimum bactericidal concentration (MBC) was determined as previously reported ([Bessa et al., 2018]). According to CLSI guidelines for antimicrobial susceptibility testing, MIC values were determined for all peptides against ATCC reference strains of two Gram-positive (S. aureus ATCC 25923 and E. faecalis ATCC 29212), and two Gram-negative (P. aeruginosa ATCC 27853 and E. coli ATCC 25922) bacterial species, and are shown in Table 2.

[1] = system: MDR K. pneumoniae isolates (KP004, KP007, KP010); test: Inhibition of biofilm formation, crystal violet assay; assay type: cell-based, Klebsiella pneumoniae; conditions: in TSB
Description: The ability of peptide 3.1-PP4 to inhibit the biofilm formation by three P. aeruginosa isolates (PA002, PA004, Pa3) and by three K. pneumoniae isolates (KP004, KP007 and KP010) was assessed at concentrations equal to the MIC, 1/2 × MIC and 1/4 × MIC in tryptic soy broth – (TSB – Liofilchem s.r.l., Italy) using the crystal violet assay as reported by [Gomes et al. (2014)]. Two independent experiments were performed in triplicate.
Some of the MDR isolates of P. aeruginosa and K. pneumoniae were randomly selected to form biofilms in the absence (controls) and presence (at MIC, 1/2 × MIC and 1/4 × MIC) of the peptide 3.1-PP4. In this assay, the test compounds were used at sub-inhibitory concentrations, since if they had been present at the MIC or higher concentrations, bacteria would be killed before starting to produce the biofilms.
FIGURE 1 Biofilm biomass quantitation of biofilms formed in the presence of peptide 3.1-PP4. Biofilms of three MDR P. aeruginosa (PA002, Pa3, and PA004) and of three MDR K. pneumoniae (KP004, KP007, and KP010) were formed in the presence of the peptide at three different concentrations, MIC, 1/2 × MIC, and 1/4 × MIC. Control biofilms were grown in absence of the peptide. Two independent experiments were performed in triplicate. Error bars represent SD. […]

HFF-1 cells = test: Collagen production, Picrosirius Red staining; assay type: cell-based, human; conditions: HFF-1, 72 h incubation, Sirius Red, absorbance 540 nm; concentrations representative of the MIC values; compared with C16-PP4
Description: Collagen production was assessed as described by [Remoué et al. (2013)]. Briefly, HFF-1 cells were seeded and incubated as described previously for the cytotoxicity assay. After the 72 h incubation with peptides, cells were washed with PBS and the Sirius Red dye in picric acid solution (Sigma-Aldrich, St. Louis, MO, United States) was applied to each well. Cells were incubated at 25°C for 1 h under orbital shaking. Dye was then rejected, and cells were washed twice with absolute ethanol (AGA). Once the wells were dry, 1 M aqueous NaOH (Sigma-Aldrich, St. Louis, MO, United States) was added, and absorbance read at 540 nm (Biotek PowerWave XS).
The CBP-AMP conjugates herein addressed include a collagenesis-inducing motif, the amino acid sequence KTTKS whose N-palmitoylated derivative is the well-known “Palmitoyl pentapeptide-4” (C16-PP4) that emerged in 2000 under the commercial name Matrixyl as an active ingredient in skin rejuvenating cosmetics. […] To this end, collagen produced by HFF-1 human fibroblasts was determined by the previously validated Picrosirius Red Staining Protocol ([Remoué et al., 2013]), taking C16-PP4 as reference CBP. […] Results are presented in Figure 3, and expressed as the ratio between collagen produced and the number of viable cells, as the test peptides had different cytotoxicity against the HFF-1 cell line. […]

CC(C)C[C@H](NC(=O)[C@H](Cc1c[nH]c2ccccc12)NC(=O)[C@H](CCCCN)NC(=O)[C@H](CC(C)C)NC(=O)[C@H](CC(C)C)NC(=O)[C@H](CCCCN)NC(=O)[C@@H](N)CCCCN)C(=O)N[C@@H](CC(C)C)C(=O)N[C@@H](CCCCN)C(=O)N[C@@H](CC(C)C)C(=O)N[C@@H](CC(C)C)C(=O)N[C@@H](CCCCN)C(=O)N[C@H](C(=O)N[C@H](C(=O)N[C@@H](CCCCN)C(=O)N[C@@H](CO)C(N)=O)[C@@H](C)O)[C@@H](C)O [Peptide 3.1-PP4] (H-KKLLKWLLKLLKTTKS-NH2; N-terminus assumed)
MIC (E. coli ATCC 25922; broth microdilution in MHB2, CLSI, value in parentheses): 1.0 µM | MIC (E. coli ATCC 25922; broth microdilution in cation-adjusted Mueller-Hinton broth (MHB2), CLSI, range tested 1–1024 μg/mL): 2 µg/mL | biofilm formation (crystal violet absorbance at 595 nm) ([1]; peptide at MIC, K. pneumoniae isolates): no biofilm was actually produced | biofilm formation (crystal violet absorbance at 595 nm) ([1]; peptide at sub-inhibitory concentrations (1/2 and 1/4 of the MIC), vs control biofilm): able to reduce the biofilm formed | collagenesis-inducing behavior (collagen produced / number of viable cells) (HFF-1 cells): not statistically different from that of Matrixyl (C16-PP4)
